Results taken from publication PMC7806630, “Molecular basis of the interaction of the human tyrosine phosphatase PTPN3 with the hepatitis B virus core protein” (Scientific Reports, 2021).

Assays:
[1] = tested on: human PDZ domains (the PDZome); test: holdup assay, PDZome profile; assay type: binding; details: holdup assay against human PDZome, threshold BI = 0.2
[2] = tested on: MPDZ; test: holdup assay, MPDZ PDZ domain; assay type: binding, human; details: biotinylated PBM-HBc peptide, in duplicates, BI > 0.2 significant
[3] = tested on: DLG2_2; test: holdup assay, DLG2_2 PDZ domain; assay type: binding, human; details: biotinylated PBM-HBc peptide, in duplicates, BI > 0.2 significant
[4] = tested on: GIPC1; test: holdup assay, GIPC1 PDZ domain; assay type: binding, human; details: biotinylated PBM-HBc peptide, in duplicates, BI > 0.2 significant
[5] = tested on: DLG3_2; test: holdup assay, DLG3_2 PDZ domain; assay type: binding, human; details: biotinylated PBM-HBc peptide, in duplicates, BI > 0.2 significant
[6] = tested on: SCRIB; test: holdup assay, SCRIB PDZ domain; assay type: binding, human; details: biotinylated PBM-HBc peptide, in duplicates, BI > 0.2 significant
[7] = tested on: DLG4_2_; test: holdup assay, DLG4_2_ PDZ domain; assay type: binding, human; details: biotinylated PBM-HBc peptide, in duplicates, BI > 0.2 significant
[8] = tested on: MAGI3; test: holdup assay, MAGI3 PDZ domain; assay type: binding, human; details: biotinylated PBM-HBc peptide, in duplicates, BI > 0.2 significant
[9] = tested on: MAGI2; test: holdup assay, MAGI2 PDZ domain; assay type: binding, human; details: biotinylated PBM-HBc peptide, in duplicates, BI > 0.2 significant
[10] = tested on: MAST2; test: holdup assay, MAST2 PDZ domain; assay type: binding, human; details: biotinylated PBM-HBc peptide, in duplicates, BI > 0.2 significant
[11] = tested on: DLG1_2; test: holdup assay, DLG1_2 PDZ domain; assay type: binding, human; details: biotinylated PBM-HBc peptide, in duplicates, BI > 0.2 significant
[12] = tested on: DLG4_3; test: holdup assay, DLG4_3 PDZ domain; assay type: binding, human; details: biotinylated PBM-HBc peptide, in duplicates, BI > 0.2 significant
[13] = tested on: SYNJ2BP; test: holdup assay, SYNJ2BP PDZ domain; assay type: binding, human; details: biotinylated PBM-HBc peptide, in duplicates, BI > 0.2 significant
[14] = tested on: PTPN4; test: holdup assay, PTPN4 PDZ domain; assay type: binding, human; details: biotinylated PBM-HBc peptide, in duplicates, BI > 0.2 significant
[15] = tested on: InaDl; test: holdup assay, InaDl PDZ domain; assay type: binding, human; details: biotinylated PBM-HBc peptide, in duplicates, BI > 0.2 significant
[16] = tested on: SNTB1; test: holdup assay, SNTB1 PDZ domain; assay type: binding, human; details: biotinylated PBM-HBc peptide, in duplicates, BI > 0.2 significant
[17] = tested on: DLG1_3; test: holdup assay, DLG1_3 PDZ domain; assay type: binding, human; details: biotinylated PBM-HBc peptide, in duplicates, BI > 0.2 significant
[18] = tested on: DLG4_1; test: holdup assay, DLG4_1 PDZ domain; assay type: binding, human; details: biotinylated PBM-HBc peptide, in duplicates, BI > 0.2 significant
[19] = tested on: SNX27; test: holdup assay, SNX27 PDZ domain; assay type: binding, human; details: biotinylated PBM-HBc peptide, in duplicates, BI > 0.2 significant
[20] = tested on: SNTB2; test: holdup assay, SNTB2 PDZ domain; assay type: binding, human; details: biotinylated PBM-HBc peptide, in duplicates, BI > 0.2 significant
[21] = tested on: TJP2; test: holdup assay, TJP2 PDZ domain; assay type: binding, human; details: biotinylated PBM-HBc peptide, in duplicates, BI > 0.2 significant
[22] = tested on: STXB4; test: holdup assay, STXB4 PDZ domain; assay type: binding, human; details: biotinylated PBM-HBc peptide, in duplicates, BI > 0.2 significant
[23] = tested on: SIPA1L2; test: holdup assay, SIPA1L2 PDZ domain; assay type: binding, human; details: biotinylated PBM-HBc peptide, in duplicates, BI > 0.2 significant
[24] = tested on: DLG2_1; test: holdup assay, DLG2_1 PDZ domain; assay type: binding, human; details: biotinylated PBM-HBc peptide, in duplicates, BI > 0.2 significant
[25] = tested on: MAGI1; test: holdup assay, MAGI1 PDZ domain; assay type: binding, human; details: biotinylated PBM-HBc peptide, in duplicates, BI > 0.2 significant
[26] = tested on: DLG1_1; test: holdup assay, DLG1_1 PDZ domain; assay type: binding, human; details: biotinylated PBM-HBc peptide, in duplicates, BI > 0.2 significant
[27] = tested on: GIPC2; test: holdup assay, GIPC2 PDZ domain; assay type: binding, human; details: biotinylated PBM-HBc peptide, in duplicates, BI > 0.2 significant
[28] = tested on: SNTA1; test: holdup assay, SNTA1 PDZ domain; assay type: binding, human; details: biotinylated PBM-HBc peptide, in duplicates, BI > 0.2 significant
[29] = molecular target: PTPN3-PDZ; details: previously reported; cited from earlier work
Description: In the present study, we investigated the molecular mechanism of interaction between PTPN3 and HBc. […] We confirmed the interaction by NMR.

[30] = molecular target: T1, PDZ domain of PTPN3 (PTPN3-PDZ), residues 489-597 (human, UniProt P26045 489-597); test: crystal structure; co-crystal of PTPN3-PDZ with PBM-HBc peptide added in excess; 20 mM HEPES pH 8, 150 mM NaCl, 0.5 mM TCEP; reservoir 20% PEG 3350, 0.2 M NaBr pH 7; 1.86 Å; details: both partners purified
T1 construct: not shown: GST, N-terminal, cleaved
T1 sequence (looked up): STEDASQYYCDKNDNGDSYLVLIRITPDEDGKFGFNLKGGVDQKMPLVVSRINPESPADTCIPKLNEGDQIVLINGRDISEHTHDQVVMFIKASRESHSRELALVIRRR

[31] = tested on: PTPN3-PDZ; test: NMR binding of full-length HBc (CLPs) to PTPN3-PDZ; set-up: species or system human; details: 1H,15N HSQC-TROSY, 600 MHz, 20 °C, PTPN3-PDZ 95 μM, PDZ:HBc final ratio 1:19.4
Description: We then tested the complex formation between PTPN3-PDZ and the full-length HBc (Fig. 2c). ^1H, ^15N HSQC-TROSY spectra were recorded on ^15N-labeled PTPN3-PDZ in its free form (red signals in Fig. 2c) and in the presence of the unlabeled HBc full-length protein at different ratios. […] Indeed, wild type (WT) HBc proteins form homodimers and self-assemble into capsids, and the full-length HBc expressed in Escherichia coli mainly assembles into capsid-like particles (CLPs) of 3 to 5 million Da, as measured by analytical ultracentrifugation (AUC) (Fig. 2d). […] The molecular tumbling of PTPN3-PDZ is drastically slowed down when forming high molecular weight complexes with the CLPs, which induced the broadening of the linewidths of the PTPN3-PDZ signals beyond detection. Yet, the TROSY spectra of the complexes did contain a few peaks, which we attributed to regions of PTPN3-PDZ that remained mobile, probably the N-terminal and C-terminal extremities.
The NMR binding experiments between PTPN3-PDZ and full-length HBc as CLPs were performed at 20 °C on a 600-MHz BRUKER Avance III HD spectrometer equipped with a cryoprobe. […] A series of ^1H, ^15N HSQC-TROSY spectra was recorded for different titration points with a ratio PDZ:HBc (mol:mol) 1:0, 1:1.4, 1:5.6, and 1:19.4.

[32] = tested on: GST-PTPN3-PDZ; test: GST pull-down assay with GST-PTPN3-PDZ; assay type: binding, human; details: lysate of HeLa S3 cells overexpressing HF-tagged HBc; anti-HA Western blot; GST alone as negative control
Description: To investigate whether the PBM at the end of CTD of HBc is accessible to PTPN3 binding during capsid assembly, a glutathione S-transferase (GST) pull-down in vitro assay was performed with lysates of HeLa S3 cells overexpressing the HA-Flag-tagged either wild-type full-length HBc (HF-HBc WT) or its Y132A mutant (HF-HBc Y132A) that forms dimers but is unable to assemble into capsids[35] (Fig. 3a; Supporting Information Fig. 1). GST protein was used as a negative control. The expression of HF-HBc WT and HF-HBc Y132A in the cell lysates was verified by Western blot using the anti-HA antibody (Fig. 3a, lane 5). We also confirmed, using native Western blot, the presence of capsid in the HeLaS3 HBc WT cell lysate and its absence in the HeLaS3 HBc Y132A cell lysate (Fig. 3b).
The construct PTPN3-PDZ tagged with a N-terminal GST (GST-PTPN3-PDZ) was expressed and purified as previously described[25] without TEV cleavage. The additional TEV cleavage step of GST-PTPN3-PDZ provides the GST alone. […]
After lysate binding, the glutathione-agarose beads were washed four times with binding buffer, pelleted, and resuspended in SDS-PAGE sample buffer for Western blotting. After boiling, the bound proteins were analyzed using 12% SDS-PAGE followed by Western blotting using HRP-conjugated HA Epitope Tag monoclonal antibody (26183-HRP, THERMOFISHER) diluted to 1:2000. […]

-RRRRSQSRESQC [HBc PBM]
number of potential HBc binders containing PDZ domains [1]: 28 | BI (binding intensity) [2]: 0,46 | BI (binding intensity) [3]: 0,38 | BI (binding intensity) [4]: 0,85 | BI (binding intensity) [5]: 0,36 | BI (binding intensity) [6]: 0,23 | BI (binding intensity) [7]: 0,35 | BI (binding intensity) [8]: 0,78 | BI (binding intensity) [9]: 0,51 | BI (binding intensity) [10]: 0,21 | BI (binding intensity) [11]: 0,40 | BI (binding intensity) [12]: 0,53 | BI (binding intensity) [13]: 0,43 | BI (binding intensity) [14]: 0,58 | BI (binding intensity) [15]: 0,29 | BI (binding intensity) [16]: 0,54 | BI (binding intensity) [17]: 0,34 | BI (binding intensity) [18]: 0,43 | BI (binding intensity) [19]: 0,39 | BI (binding intensity) [20]: 0,38 | BI (binding intensity) [21]: 0,27 | BI (binding intensity) [22]: 0,47 | BI (binding intensity) [23]: 0,24 | BI (binding intensity) [24]: 0,35 | BI (binding intensity) [25]: 0,49 | BI (binding intensity) [26]: 0,34 | BI (binding intensity) [27]: 0,31 | BI (binding intensity) [28]: 0,25

ETQL [PBM-16E6, PBM of the HPV16 E6 protein, reference compound]
KD [29]: a few tens of

NH2RRRRSQSRESQCCOOH [PBM-HBc, PBM-HBc peptide (NH2…OOH)]
KD [29]: a few tens of

B1: PBM-HBc peptide (C-terminal PDZ-binding motif of the hepatitis B virus core protein) (peptide)
peptide: RRRRSQSRESQC
notes: also called PBM of HBc; source: synthetic peptide (Fmoc solid phase, PROTEOGENIX)
binding result [30]: binds

B2: full-length HBc: full-length HBc expressed in Escherichia coli mainly assembles into capsid-like particles (CLPs) (protein)
chain: MDIDPYKEFGATVELLSFLPSDFFPSVRDLLDTASALYREALESPEHCSPHHTALRQAILCWGELMTLATWVGVNLEDPASRDLVVSYVNTNMGLKFRQLLWFHISCLTFGRETVIEYLVSFGVWIRTPPAYRPPNAPILSTLPETTVVRRRGRSPRRRTPSPRRRRSQSPRRRRSQSRESQC
effect on TROSY resonances of PTPN3-PDZ [31]: nearly all of the TROSY resonances observed with free PTPN3-PDZ had disappeared

B3: HBc WT: HA-Flag-tagged wild-type full-length HBc (protein)
chain: B2 chain
binding in GST pull-down [32]: detected only in interaction with GST-PTPN3-PDZ
